Results: patent publication US20220289753A1, “SHP2 INHIBITORS” (IRBM S.P.A., priority 2019, published 2022)

Assays:
[1] = tested on: ERK phosphorylation in KYSE-520 cells; assay: Phospho-ERK cellular assay (Advanced phospho-ERK1/2 (Thr202/Tyr204) TR-FRET kit); format: cell-based; details: Homo sapiens, KYSE-520, 2 h, KYSE-520 cells, 2 h at 37° C., TR-FRET; read-out: pERK IC50
Protocol: Phospho-ERK Cellular Assay
ERK phosphorylation was detected using the “Advanced phospho-ERK1/2 (Thr202/Tyr204)” TR-FRET kit (Cisbio, Cat #64AERPEG/H), following the manufacturer reagents and instructions. […] After an overnight incubation, cells were treated with DMSO serial diluted compounds and incubated for 2 h at 37° C. After incubation, 2 μL/well of 4× Lysis Buffer (Cisbio 64KL1FDF), were added and incubated with cells for 30 min on gentle shaking. Finally, lysates were added with 2 μL/well of Eu cryptate (donor) and D2 (acceptor) conjugated antibodies (as provided by the Cisbio kit #64AERPEG/H) diluted 1:100 in Detection Buffer (as provided by the Cisbio kit #64AERPEG/H). Plates were then sealed and incubated at room temperature in the dark. After an overnight incubation, the TR-FRET signal was detected on a suitable reader (Envision, PerkinElmer). The lower the TR-FRET signal the higher the higher the SHP2 inhibition in cells. […] The percentage activity is fitted against the compound dilutions with a four-parameter logistic regression. The inflection point (i.e. the concentration at which half-maximal inhibition is achieved) is the IC50.

[2] = target: T1, SHP-2 enzyme (Met1-Leu525) (Homo sapiens, UniProt Q06124); assay: SHP2 inhibition enzymatic assay (DiFMUP substrate, IRS1 peptide activation); format: biochemical; details: SHP2 wt; activated by 500 nM IRS1 peptide; 75 μM DiFMUP substrate
T1 construct: synthetized by Origene, Met1-Leu525, cat #TP750155; purchased Origene TP750155
T1 sequence (Q06124 1-525): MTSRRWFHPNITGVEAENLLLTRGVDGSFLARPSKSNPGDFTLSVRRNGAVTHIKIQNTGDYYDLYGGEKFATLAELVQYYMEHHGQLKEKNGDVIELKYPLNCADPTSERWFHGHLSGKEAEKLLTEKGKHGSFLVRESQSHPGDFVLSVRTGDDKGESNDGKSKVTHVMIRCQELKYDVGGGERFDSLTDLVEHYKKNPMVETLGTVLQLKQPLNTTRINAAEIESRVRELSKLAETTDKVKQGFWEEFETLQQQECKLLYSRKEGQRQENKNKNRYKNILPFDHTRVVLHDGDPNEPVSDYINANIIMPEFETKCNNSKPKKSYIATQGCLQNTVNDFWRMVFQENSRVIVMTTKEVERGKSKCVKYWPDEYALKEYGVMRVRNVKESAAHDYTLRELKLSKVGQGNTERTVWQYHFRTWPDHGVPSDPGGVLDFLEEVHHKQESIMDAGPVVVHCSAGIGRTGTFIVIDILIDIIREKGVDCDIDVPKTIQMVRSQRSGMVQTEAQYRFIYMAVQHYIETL
How it was run: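 SHP-2 (Met1-Leu525, 0.5 nM final) preincubated 30 min with compounds and IRS1 activating peptide in HEPES pH 7.2 buffer with NaCl, KCl, EDTA, tween-20, 5 mM DTT. DiFMUP then added for 30 min at room temperature and fluorescence read. IC50 from four-parameter logistic fit of % inhibition.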

IC50 [1] [µM]	IC50 [2] [µM]	Compound
< 1	< 0.5	N[C@@H]1c2ccccc2CC12CCN(c1nc3nc(Sc4cccc5c4C(F)(F)C(=O)N5)cnc3[nH]1)CC2 [Example 162, (S)-4-((2-(1-amino-1,3-dihydrospiro[indene-2,4′-piperidin]-1′-yl)-1H-imidazo[4,5-b]pyrazin-5-yl)thio)-3,3-difluoroindolin-2-one]
> 5	< 0.5	N[C@@H]1c2ncccc2OC12CCN(c1nc3nc(Sc4ccncc4Cl)cnc3[nH]1)CC2 [Example 163, (R)-1′-(5-((3-chloropyridin-4-yl)thio)-1H-imidazo[4,5-b]pyrazin-2-yl)-3H-spiro[furo[3,2-b]pyridine-2,4′-piperidin]-3-amine]
< 1	< 0.5	N[C@@H]1c2ccccc2CC12CCN(c1nc3ncc(Sc4ccnc5cccnc45)nc3[nH]1)CC2 [Example 164, (S)-1′-(6-((1,5-naphthyridin-4-yl)thio)-1H-imidazo[4,5-b]pyrazin-2-yl)-1,3-dihydrospiro[indene-2,4′-piperidin]-1-amine]
< 1	< 0.5	N[C@@H]1c2ccccc2CC12CCN(c1nc3nc(Sc4ccnc(N5CC(O)C5)c4Cl)cnc3[nH]1)CC2 [Example 165, (S)-1-(4-((2-(1-amino-1,3-dihydrospiro[indene-2,4′-piperidin]-1′-yl)-1H-imidazo[4,5-b]pyrazin-5-yl)thio)-3-chloropyridin-2-yl)azetidin-3-ol]
< 1	< 0.5	Cn1ccc(Sc2cnc3nc(N4CCC5(CC4)Cc4ccccc4[C@H]5N)[nH]c3n2)c(Cl)c1=O [Example 166, (S)-4-((2-(1-amino-1,3-dihydrospiro[indene-2,4′-piperidin]-1′-yl)-1H-imidazo[4,5-b]pyrazin-6-yl)thio)-3-chloro-1-methylpyridin-2(1H)-one]
< 1	< 0.5	N[C@@H]1c2ccccc2CC12CCN(c1nc3ncc(Sc4cccc5c4OCCO5)nc3[nH]1)CC2 [Example 167, (S)-1′-(6-((2,3-dihydrobenzo[b][1,4]dioxin-5-yl)thio)-1H-imidazo[4,5-b]pyrazin-2-yl)-1,3-dihydrospiro[indene-2,4′-piperidin]-1-amine]
> 5	< 0.5	N[C@@H]1c2cccnc2CC12CCN(c1nc3ncc(Sc4cc(Cl)c5[nH]c(=O)oc5c4)nc3[nH]1)CC2 [Example 168, (S)-6-((2-(5-amino-5,7-dihydrospiro[cyclopenta[b]pyridine-6,4′-piperidin]-1′-yl)-1H-imidazo[4,5-b]pyrazin-6-yl)thio)-4-chlorobenzo[d]oxazol-2(3H)-one]
< 1	< 0.5	N[C@@H]1c2cccnc2CC12CCN(c1nc3ncc(Sc4ccc5c(c4Cl)NC(=O)CO5)nc3[nH]1)CC2 [Example 169, (S)-6-((2-(5-amino-5,7-dihydrospiro[cyclopenta[b]pyridine-6,4′-piperidin]-1′-yl)-1H-imidazo[4,5-b]pyrazin-6-yl)thio)-5-chloro-2H-benzo[b][1,4]oxazin-3(4H)-one]
1 to 5	< 0.5	N[C@@H]1c2cccnc2CC12CCN(c1nc3ncc(Sc4cccc5c4CCC(=O)N5)nc3[nH]1)CC2 [Example 170, (S)-5-((2-(5-amino-5,7-dihydrospiro[cyclopenta[b]pyridine-6,4′-piperidin]-1′-yl)-1H-imidazo[4,5-b]pyrazin-5-yl)thio)-3,4-dihydroquinolin-2(1H)-one]
< 1	< 0.5	N[C@@H]1c2cccnc2CC12CCN(c1nc3ncc(Sc4ccnc(Cl)c4Cl)nc3[nH]1)CC2 [Example 171, (S)-1′-(5-((2,3-dichloropyridin-4-yl)thio)-1H-imidazo[4,5-b]pyrazin-2-yl)-5,7-dihydrospiro[cyclopenta[b]pyridine-6,4′-piperidin]-5-amine]
< 1	< 0.5	N[C@@H]1c2cccnc2CC12CCN(c1nc3ncc(Sc4cccc(Cl)c4Cl)nc3[nH]1)CC2 [Example 172, (S)-1′-(5-((2,3-dichlorophenyl)thio)-1H-imidazo[4,5-b]pyrazin-2-yl)-5,7-dihydrospiro[cyclopenta[b]pyridine-6,4′-piperidin]-5-amine]
